{
  "source": "patent US20190321302A1",
  "about": "“PRESERVATION OF MICROORGANISMS” (Yun NV, priority 2016, published 2019)",
  "key": {"[1]": {"conditions": "at 25° C.; cited from earlier work"}, "[2]": {"system": "E. coli (DSM 1576), Ps. Aeruginosa (DSM 1128), C. albicans (DSM 1386), St. aureus (DSM 799), As. Niger (DSM 1988)", "conditions": "base cream without capsules, pH 4.5, 4 weeks, concentrations as low as 0.1%", "protocol": "This was proven by conducting a challenge test on the cream (without the probiotic capsules) with the different preservative concentrations, according to the European Pharmacopeia (5.1.3).\nChallenge tests are used to determine the efficacy of the antimicrobial conservation system for dermatological products. […] Sorbic acid was tested in concentrations : 0.5%-0.3%-0.1%-0% (Control).\nThe challenged organisms were E. coli (DSM 1576), Ps. Aeruginosa (DSM 1128), C. albicans (DSM 1386), St. aureus (DSM 799), As. Niger (DSM 1988).\nAddition of the challenged organisms (in 100 gram product) happens at 10^6 CFU/ML. Sampling happens after 6 hours, 24 hours, 7-14 & 28 days. A challenge test is successful if at least a 3 log reduction is visible after 7 days for the bacteria and a 2 log reduction for the yeasts/molds after 14 days—3 log after 4 weeks. Results shown are after 4 weeks of sampling."}, "probiotic capsules": {"system": "probiotic capsules", "conditions": "for % survival: 3 months cold storage, relative to Blanc; for CFU/g: capsules 15% in basic cream pH 4.5, 3 months cold storage", "experimental": "A basic cream without preservatives/perfume was used as basis for further tests. The preservative tested was Sorbic acid (2,4 hexadienoic acid), an organic acid with pKa 4.76 at 25° C. at different concentrations. The pH of the cream for all the tested conditions was adjusted to 4.5 using HCl/NaOH.\nThe probiotic capsules are suspended 15% (m/) in the cream base with the different preservative concentrations. To simulate release of the probiotics in vivo, the use of a Citric acid buffer was used in vitro. The citric acid will dissolve the membrane of the capsule and hereby release the probiotics inside the capsule. CA buffer was made by dissolving 31.2 g Na2HPo4 & 1.25 g Citric acid in 971.54 g Sterile water. The Final solution is isotonic with a pH of 7.4±0.2.\nThe sample creams are sampled in duplo after which it is dissolved in CA-buffer. A further 1/10 dilution series is made and 0.1 ml is spread on MRS agar plates using the ‘copacabana spread plating method’ with 5 glass beads diameter 4 mm. Plating happens in duplo and results (after 3 days incubation 37° C.) are calculated as CFU/ gram cream. Storage happens at 4° C. & 25° C. Sampling happens after 1-2-3 months."}},
  "note": "Read-outs that look alike come from different tables or passages of the source.",
  "data": [
    {"smiles": "CC=CC=CC(=O)O", "note": "[Sorbic acid, 2,4 hexadienoic acid]", "values": [
      {"measurement": "pKa", "setting": "[1]", "result": 4.76},
      {"measurement": "preservative effect in challenge test", "setting": "[2]", "result": "good preservative effect"},
      {"measurement": "% survival", "setting": "probiotic capsules; sorbic acid 0.03 %", "result": 68, "unit": "%"},
      {"measurement": "CFU/g", "setting": "probiotic capsules; sorbic acid 0.03 %", "result": "6.E+07", "unit": "CFU/g"},
      {"measurement": "% survival", "setting": "probiotic capsules; sorbic acid 0.1 %", "result": 79, "unit": "%"},
      {"measurement": "CFU/g", "setting": "probiotic capsules; sorbic acid 0.1 %", "result": "7.E+07", "unit": "CFU/g"},
      {"measurement": "% survival", "setting": "probiotic capsules; sorbic acid 0.3 %", "result": 76, "unit": "%"},
      {"measurement": "CFU/g", "setting": "probiotic capsules; sorbic acid 0.3 %", "result": "7.E+07", "unit": "CFU/g"}
    ]}
  ]
}
